Results on one compound are retold here after EP2042188A1, “PHARMACEUTICAL COMPOSITION FOR TREATING OR PREVENTING HCV INFECTION” (priority 2006, dated 2007).

For data set [1], the system named is FLR3-1 HCV subgenomic replicon cells (genotype 1b; Con-1). Put plainly: Luciferase assay of HCV replication in HCV subgenomic replicon cells. The settings on record: Hepatitis C virus; for IC50: 72 h, FLR3-1 cells, read-out: IC50 of myriocin. Format: cell-based. The procedure:
First, myriocin (Sigma, St. Louis, MO, USA) was added at a final concentration of 0.2, 1.0, 3.9, 15.6, or 62.5 nM to a growth medium for FLR3-1 HCV subgenomic replicon cells (genotype 1b; Con-1; Sakamoto, H. et al., Nat Chem Biol, 1, 333-337 (2005)). After 72 hours of incubation, the present inventors carried out luciferase assay using the Bright-Glo luciferase assay kit (Promega, Madison, WI, USA).
FLR3-1 cells were incubated with 1 or 2.5 µM of a sphingolipid intermediate (dihydrosphingosine, sphingosine, or sphingosine-1-phosphate), and then serial dilutions of myriocin were added thereto. After 72 hours, IC50 in each combination was determined by luciferase assay.
(In general: In antiviral work, replicon cells carry a viral genome segment that copies itself.)

Data set [2] has as its system FLR3-1 cells. Nature of the data set: Cell viability (Tetra Color One kit). Format: cell-based. The settings on record: 72 hours of incubation, 0.2 to 62.5 nM. The protocol: Furthermore, myriocin was added to FLR3-1 cells, and after 72 hours of incubation, the cell viability was determined using Tetra Color One kit (Seikagakukogyo, Tokyo, Japan) according to the manufacturer's instructions.

Data set [3] deals with de novo sphingolipid biosynthesis in FLR3-1 cells. Nature of the data set: De novo sphingolipid biosynthesis monitored by [14C]-serine incorporation and TLC. In kind it is cell-based. The following applies: TLC. The protocol:
To investigate the correlation between sphingolipid metabolites and HCV replication, the present inventors monitored the de novo sphingolipid biosynthesis in FLR3-1 cells in the presence of myriocin.
First, FLR3-1 cells were incubated with [^14C]-serine (0.5 µCi/ml) in Opti-MEM (Invitrogen) for two hours. After the cells were lysed in 0.1% SDS, total lipid was extracted using chloroform/methanol (1:2 (v/v)). The extract was spotted onto a Silica gel 60 thin layer chromatography (TLC) plate (Merck, Darmstadt, Germany), and chromatographed using methyl acetate/ 1-propanol/ chloroform/methanol/ 0.25% KCl (25:25:25:10:9 (v/v)). Radioactive spots were detected using BAS 2000 (Fujifilm, Kanagawa, Japan).

For data set [4], the system named is NS3 protein. Put plainly: Immunoblotting and immunofluorescent staining of NS3 protein in HCV replicon cells. Format: cell-based. (In general: In western blotting, separated proteins are transferred to a membrane and probed.)
The subject of data set [5] is HCV genotype 1b (HCR6). Nature of the data set: Serum HCV RNA (real-time PCR) in chimeric mice with humanized liver infected with HCV genotype 1b, myriocin and/or PEG-IFN. In kind it is in vivo, chimeric mice having humanized liver. The settings on record: after eight days, myriocin 1 mg/kg (reduced to 0.5 mg/kg on weight loss). The protocol: The inhibitory activity of myriocin was examined using chimeric mice having humanized liver infected with HCR6 (genotype 1b). The chimeric mice used were purchased from PhoenixBio Co. (Hiroshima, Japan).
Specifically, according to Table 2, myriocin and/or PEG-IFN (Chugai, Tokyo, Japan) were administered intraperitoneally or subcutaneously into mice infected with HCV genotype 1b (HCR6; accession number AY045702) and blood was collected. Table 2: Administration schedule for chimeric mice infected with HCV genotype 1b
In Table 2, the symbols B, I, and M indicate that each step was conducted as needed and the administration of agents was started on day 0. PEG-IFN was injected at a dose of 30 µg/kg. The dose of myriocin injection was varied depending on the mouse weight. The administration was started at 1 mg/kg (M). When the weight was reduced by 10%, the dose was reduced to 0.5 mg/kg (M1/2). The administration was discontinued when the weight was reduced by 20%.
Next, total RNAs were purified using AGPC method from 1 µl of sera or hepatic tissues collected from the chimeric mice. HCV RNA was quantified by real-time PCR using a method known to those skilled in the art (Takeuchi, T. et al., Gastroenterology, 116, 636-642 (1999)).
In general terms: Real-time PCR tracks product formation cycle by cycle.

A short description of data set [6]: Serum human albumin level (Alb-II kit) in HCV 1b infected chimeric mice. In kind it is in vivo, chimeric mice having humanized liver. The following applies: serum of HCV 1b infected chimeric mice. The protocol: The present inventors monitored the human albumin (h-Alb) level at the same time. The human albumin level was determined using 2 µl of serum and the Alb-II kit (Eiken Chemical, Tokyo, Japan) according to the manufacturer's instructions.

For data set [7], the system named is HCV genotype, 1a (HCG9). Nature of the data set: HCV RNA and core protein in serum and liver of chimeric mice infected with HCV genotype 1a. Format: in vivo. The settings on record: 2 mg/kg of myriocin every day for six days. The procedure:
The serum RNA level in these mice reached about 1x10^8 copies/ml, 10 times higher than that of HCV 1b (HCR6) (Fig. 5A). Therefore, it was assumed that the HCV core protein in the hepatocytes could be readily detected by immunofluorescent staining. The present inventors administered 2 mg/kg of myriocin to 1a-4 chimeric mice every day for six days and then excised the livers. For comparison, livers were also excised from non-treated mice (1a-1), non-infected mice (1a-2), and PEG-IFN-treated mice (1a-3) in the same way. The livers were homogenized in RIPA, and 100 µg of the total protein was used for detection of the core protein using the Ortho HCV core protein ELISA kit (Eiken Chemical).
Next, the liver tissues of the chimeric mice were examined by immunofluorescent staining. Liver sections from the 1a-1 and 1a-4 mice were probed using a biotinylated anti-HCV core protein monoclonal antibody and anti-human hepatocyte monoclonal antibody (Dako, Glostrup, Denmark) as primary antibodies. Then, the sections were probed with streptavidin-Alexa 488 (Invitrogen) and anti-mouse IgG-Alexa-546 (Invitrogen). Furthermore, nuclei were stained with DAPI.
The effect of myriocin treatment on the expression of HCV RNA and core protein in the livers of the chimeric mice was confirmed by the method described above.

Read-outs that look alike come from different tables or passages of the source.

As usually defined, the IC50 is the concentration that gives 50% inhibition. For `CCCCCCC(=O)CCCCCC/C=C/C[C@@H](O)[C@H](O)[C@@](N)(CO)C(=O)O` [myriocin, Myriocin], the half-inhibitory concentration (IC50) in data set [1] (Agent added: Dihydrosphingosine 1.0 µM) was 77.7 nM; in data set [1] (Agent added: Dihydrosphingosine 2.5 µM) it was greater than 1000 nM; in data set [1] (Agent added: Sphingosine 1.0 µM) it was 22.4 nM; in data set [1] (Agent added: Sphingosine 2.5 µM), greater than 1000 nM; in data set [1] (Agent added: Sphingosine-1-phosphate 1.0 µM), 14.7 nM; in data set [1] (Agent added: Sphingosine-1-phosphate 2.5 µM), greater than 1000 nM. The IC50 in data set [1] (No agent added, luciferase assay) was roughly 5.8 nM. Further, the inhibition at 0.0625 µM in data set [1] (in the presence of 62.5 nM myriocin, 72 hours, read-out: maximum inhibitory rate (luciferase activity)) is roughly 80%. Moreover, in data set [2], the cell viability entry was “without affecting the cell viability”. Also, the “production of both ceramide and sphingomyelin” value in data set [3] is “inhibited in a dose dependent manner”. For the same compound, the “production of phosphatidylethanolamine and phosphatidylserine” value in data set [3] was “not affected”. The NS3 protein result in data set [4] is reported as “reduced”. The “reduction of serum level of HCV RNA” value in data set [5] was in the range of 10 to 100 times. Besides, the “serum level of HCV RNA” value is 6 x 10^5 to 1 x 10^4 copies/ml in data set [5] (before treatment 3 x 10^6 to 1 x 10^7 copies/ml) and 1 x 10^5 copies/ml in data set [7] (1a-4 mice, non-treated about 1x10^8 copies/ml). Also, in data set [6], the human albumin level entry is given as “without affecting h-Alb”. In addition, the “HCV 1a RNA and core protein in the liver” value in data set [7] (1a-4 mice) was “also reduced”. Moreover, in data set [7] (liver sections of 1a-4 mice), the “core protein in human hepatocytes (immunofluorescent staining)” value is reported as “disappeared”.
